How the values were obtained:
[1] = hygroscopicity, weight increase on exposure to water vapor in climatic chamber; assay type: physicochemical; conditions: 24 hours, temperature (25±1)°C, relative humidity (80±2)%, 200 mg sample
influenza A viruses = test system: influenza A viruses; parameters: species or system mice; conditions: mouse, in vivo, po
[2] = study of physicochemical and technological properties

SMILES | X (%), increase in the weight of the test substance [1] [%] | clinical symptoms of the disease (influenza A viruses) | titer of the virus in the nasal wash and fever (influenza A viruses) | solubility [2] | stability [2] | virus titer in the nasal wash, less than in groups 2 and 3 (crystal forms I, II) (influenza A viruses)
CC(C)C(=O)OC[C@H]1O[C@@H](n2ccc(NO)nc2=O)[C@H](O)[C@@H]1O [Polymorph I, [(2R,3S,4R,5R)-3,4-dihydroxy-5-[4-(hydroxyamino)-2-oxopyrimidin-1-yl]oxolan-2-yl]methyl-2-methylpropanoate] | 4.1 | some animals showed a decrease in body weight and shortness of breath | a decrease in the titer of the virus in the nasal wash and a decrease in fever |  |  | 
CC(C)C(=O)OC[C@H]1O[C@@H](n2ccc(NO)nc2=O)[C@H](O)[C@@H]1O [[(2R,3S,4R,5R)-3,4-dihydroxy-5-[4-(hydroxyamino)-2-oxopyrimidin-1-yl]oxolan-2-yl]methyl-2-methylpropanoate] | 0.5 | clinical symptoms of the disease were practically not recorded | a decrease in the titer of the virus in the nasal wash and a decrease in fever | higher solubility | improving the stability | approximately 20%
CC(C)C(=O)OC[C@H]1O[C@@H](n2ccc(NO)nc2=O)[C@H](O)[C@@H]1O [Polymorph II, [(2R,3S,4R,5R)-3,4-dihydroxy-5-[4-(hydroxyamino)-2-oxopyrimidin-1-yl]oxolan-2-yl]methyl-2-methylpropanoate] | 5.2 | some animals showed a decrease in body weight and shortness of breath | a decrease in the titer of the virus in the nasal wash and a decrease in fever |  |  | 

— patent US20250122234A1, “NOVEL CRYSTALLINE FORM OF [(2R,3S,4R,5R)-3,4-DIHYDROXY-5-[4-(HYDROXYAMINO)-2- OXOPYRIMIDIN-1-YL]OXOLAN-2-YL]METHYL-2-METHYLPROPANOATE” (priority 2021, published 2025)
